Results reported in patent US9284345B2 (priority 2007, dated 2016).
Like-named read-outs stand apart in the source and are kept apart here.

What was measured:
[1] = in vivo; conditions: male, Sprague-Dawley, rat, in vivo, po, 0.5 mg
[2] = test system: Immature Rat CX; conditions: sc
[3] = test system: CX+ 4-DIONE in Mature Rat; assay: Systemic antiandrogenic activity in mature male rats; type: in vivo; conditions: for inhibition of prostate weight (4-dione stimulated): 5 mg/rat
[4] = test system: Intact Rat; assay: In vivo activity in intact rat (organ and muscle weight); conditions: rat, in vivo
[5] = test system: Immature Rat CX + DHT; assay: animal or person; type: in vivo; conditions: for change in vivo at 0.1 mg / change in vivo at 0.5 mg: Rattus norvegicus, 168 h
[6] = test system: Shionogi mouse mammary carcinoma cells; assay: cells; type: cell-based
[7] = biological target: T1, Human Androgen Receptor (Homo sapiens, UniProt P10275); type: binding
T1 construct: expressed in transfected cells; host or cells: HEK-293 cells stably transfected with the pCMVneo-hAR plasmid (G-418 selection); cytosol used
T1 sequence (P10275 1-920): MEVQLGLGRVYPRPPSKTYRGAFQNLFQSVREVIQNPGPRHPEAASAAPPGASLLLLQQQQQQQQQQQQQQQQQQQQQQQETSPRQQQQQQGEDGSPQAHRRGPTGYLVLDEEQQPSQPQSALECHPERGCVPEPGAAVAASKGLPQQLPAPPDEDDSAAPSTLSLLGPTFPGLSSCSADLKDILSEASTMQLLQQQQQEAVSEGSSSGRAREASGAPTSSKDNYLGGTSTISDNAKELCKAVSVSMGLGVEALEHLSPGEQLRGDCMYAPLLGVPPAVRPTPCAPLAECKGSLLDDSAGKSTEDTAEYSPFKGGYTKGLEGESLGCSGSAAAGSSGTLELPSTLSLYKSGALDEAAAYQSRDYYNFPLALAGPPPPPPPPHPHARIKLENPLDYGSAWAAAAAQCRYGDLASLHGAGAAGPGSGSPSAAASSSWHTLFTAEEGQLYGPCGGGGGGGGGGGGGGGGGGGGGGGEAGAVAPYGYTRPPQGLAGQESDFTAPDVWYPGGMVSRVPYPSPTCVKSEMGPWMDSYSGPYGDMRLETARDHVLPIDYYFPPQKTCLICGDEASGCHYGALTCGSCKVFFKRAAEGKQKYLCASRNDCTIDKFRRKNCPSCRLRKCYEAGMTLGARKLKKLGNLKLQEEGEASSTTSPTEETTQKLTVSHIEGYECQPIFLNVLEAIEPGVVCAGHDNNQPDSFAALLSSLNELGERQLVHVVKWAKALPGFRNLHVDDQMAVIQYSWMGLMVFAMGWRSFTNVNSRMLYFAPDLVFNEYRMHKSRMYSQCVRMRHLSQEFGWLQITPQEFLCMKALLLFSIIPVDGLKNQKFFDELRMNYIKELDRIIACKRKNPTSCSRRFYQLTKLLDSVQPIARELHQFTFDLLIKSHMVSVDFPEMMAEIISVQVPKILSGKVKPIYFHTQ

[8] = biological target: T2, Rat Androgen Receptor (Rattus norvegicus, UniProt P15207); assay: Androgen receptor binding assay (HAP, [3H]R1881), rat prostate cytosol
T2 construct: ventral prostates collected from 24 h-gonadectomized rats were homogenized in buffer A; from tissue; host or cells: rat ventral prostate cytosol (24 h-gonadectomized rats)
T2 sequence (P15207 1-902): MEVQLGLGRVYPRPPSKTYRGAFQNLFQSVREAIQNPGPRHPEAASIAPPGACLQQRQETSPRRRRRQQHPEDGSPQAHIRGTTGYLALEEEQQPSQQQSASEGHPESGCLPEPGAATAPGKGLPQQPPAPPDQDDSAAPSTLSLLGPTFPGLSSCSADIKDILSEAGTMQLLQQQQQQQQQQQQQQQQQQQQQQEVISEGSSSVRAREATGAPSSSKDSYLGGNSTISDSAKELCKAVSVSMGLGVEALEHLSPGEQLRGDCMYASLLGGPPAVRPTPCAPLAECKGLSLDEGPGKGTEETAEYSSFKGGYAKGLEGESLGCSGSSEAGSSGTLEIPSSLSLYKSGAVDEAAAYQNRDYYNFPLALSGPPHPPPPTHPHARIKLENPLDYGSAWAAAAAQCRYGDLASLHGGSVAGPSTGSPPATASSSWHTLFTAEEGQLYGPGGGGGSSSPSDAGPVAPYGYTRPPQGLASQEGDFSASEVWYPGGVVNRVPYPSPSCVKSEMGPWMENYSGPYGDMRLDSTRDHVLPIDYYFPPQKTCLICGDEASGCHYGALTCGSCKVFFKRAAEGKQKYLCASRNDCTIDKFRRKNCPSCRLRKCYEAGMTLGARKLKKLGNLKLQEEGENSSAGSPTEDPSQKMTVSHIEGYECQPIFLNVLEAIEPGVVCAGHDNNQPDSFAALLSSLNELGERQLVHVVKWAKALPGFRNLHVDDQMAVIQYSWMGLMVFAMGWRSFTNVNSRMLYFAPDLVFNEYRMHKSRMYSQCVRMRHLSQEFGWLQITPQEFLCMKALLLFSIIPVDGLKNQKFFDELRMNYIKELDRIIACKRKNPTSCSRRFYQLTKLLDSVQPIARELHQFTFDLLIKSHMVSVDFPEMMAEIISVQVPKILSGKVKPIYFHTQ
Description: On the morning of the binding assay, ventral prostates collected from 24 h-gonadectomized rats were homogenized in buffer A (1 g of tissue in 5 mL) and the homogenate was centrifuged as described above.
Androgen binding is measured using the hydroxylapatite (HAP) assay. In brief, the radioactive steroid [^3H]R1881 solubilized in ethanol is diluted with buffer B (10 mM Tris-HCl, 1.5 mM EDTA disodium salt, 10 mM α-monothioglycerol, pH 7.4). Aliquots of the cell or prostate cytosol preparation (0.1 ml) are then incubated with 5 nM [^3H]R1881 (0.1 ml, ˜100 000 cpm) in the presence or absence of the indicated concentrations of unlabeled compounds (0.1 ml, prepared in buffer B containing 30% ethanol) for 16-18 h at 0-4° C. Triamcinolone acetonide (TAC; 100 nM) is added to mask progesterone receptors. Unbound steroids are separated by incubation for 40 min at 0-4° C. with 0.3 ml HAP prepared in buffer P (50 mM Tris-HCl, 10 mM KH2PO4, pH 7.4). After incubation with HAP and 10 min of centrifugation at 1000×g, the pellet is washed 3 times with 1 ml of buffer P. Thereafter, the radioactivity is extracted from the pellet by incubation at room temperature for 60 min with 1 ml of ethanol. After centrifugation, the supernatant is decanted into a scintillation vial and the pellet is extracted again with ethanol. After the addition of scintillation liquid, the radioactivity is measured in a liquid scintillation counter.

[9] = po, read-out: In Vivo Antagonist % Change vs DHT (CX = −100%) SV
[10] = po, read-out: In Vivo Antagonist % Change vs DHT (CX = −100%) VP

Row | Compound | AUC [1] | In Vivo Agonist % Change vs CX (DHT = +100%) SV [2] | In Vivo Agonist % Change vs CX (DHT = +100%) VP [2] | % change vs 4-DIONE Cont (CX Cont = −100% inh) Seminal Vesicles ([3]; 1 mg/rat/per os/ID) | % change vs 4-DIONE Cont (CX Cont = −100% inh) Ventral Prostate ([3]; 1 mg/rat/per os/ID) | inhibition of prostate weight (4-dione stimulated) [3] | % change vs 4-DIONE Cont (CX Cont = −100% inh) Seminal Vesicles ([3]; 5 mg/rat/per os/ID) | % change vs 4-DIONE Cont (CX Cont = −100% inh) Ventral Prostate ([3]; 5 mg/rat/per os/ID) | change in vivo at 0.5 mg [5, 9] | change in vivo at 0.5 mg [5, 10] | further results
1 | CC(C)C(=O)Nc1ccc([N+](=O)[O-])c(C(F)(F)F)c1 [Flutamide, reference compound] | 39 ± 4 ng·h/mL | (0; 0.2 mg, sc) % | (1; 0.2 mg, sc) % | −102 ± 8% | −47 ± 7% | 70% | −106 ± 6% | −70 ± 3% | -83% | -48% | In Vivo Intact Rat % change vs Intact CONT (Intact CONT = +100%; CX CONT = 0%) Bulbo [4]: +42 ± 6%; In Vivo Intact Rat % change vs Intact CONT (Intact CONT = +100%; CX CONT = 0%) SZ [4]: +33 ± 4%; In Vivo Intact Rat % change vs Intact CONT (Intact CONT = +100%; CX CONT = 0%) VP [4]: +75 ± 4%; change in vivo at 0.1 mg [5, 9]: -62 ± 4%; change in vivo at 0.1 mg [5, 10]: -26 ± 2%; inhibition of DHT-stimulated seminal vesicle weight ([5]; rat, in vivo): 83%; inhibition of DHT-stimulated ventral prostate weight ([5]; rat, in vivo): 48%; In Vivo Anti-A Rat CX + DHT % change vs DHT (CX CONT = −100%) Bulbo ([5]; rat, in vivo, po): [−68 ± 2] %; In Vivo Anti-A Rat CX + DHT % change vs DHT (CX CONT = −100%) SV ([5]; rat, in vivo, po): [−83 ± 1] %; In Vivo Anti-A Rat CX + DHT % change vs DHT (CX CONT = −100%) VP ([5]; rat, in vivo, po): [−48 ± 1] %
2 | CC(C)(O)C(=O)Nc1ccc([N+](=O)[O-])c(C(F)(F)F)c1 [Hydroxyflutamide, reference compound] | 5380 ± 820 ng·h/mL |  |  |  |  |  |  |  |  |  | Shionogi cells Antiandrogenic activity Ki OH-Flu/Ki compound [6]: 1; Ki ([6]; read-out: Shionogi cells Antiandrogenic activity Ki): 0.0168 ± 0.0005 µM; Human Androgen Receptor Binding RBA (%) R1881 = 100% [7]: 0.21 ± 0.09%; Rat Androgen Receptor Binding RBA (%) R1881 = 100% [8]: 0.1%
3 | CC(O)(CS(=O)(=O)c1ccc(F)cc1)C(=O)Nc1ccc(C#N)c(C(F)(F)F)c1 (centres unmarked) [bicalutamide] | 8500 ± 386 ng·h/mL | (0; 0.2 mg, sc) % | (0; 0.2 mg, sc) % | −82 ± 9% | −44 ± 7% | 64% | −90 ± 6% | −64 ± 4% | -86% | -51% | 
